Experimental data from ChEMBL document CHEMBL4706658, “Discovery and Biological Evaluation of N-Methyl-pyrrolo[2,3-b]pyridine-5-carboxamide Derivatives as JAK1-Selective Inhibitors” (J Med Chem, 2021).
Active and inactive are the calls of the source. No cut-off for these calls is given here.

Columns and labels:
[1] = target: T1, Tyrosine-protein kinase JAK2 (Homo sapiens, UniProt O60674)
Description: Inhibition of recombinant JAK2 (unknown origin) using GFP-STAT1 as substrate incubated for 1 hr followed by anti-pSTAT1 antibody addition and measured after 30 mins by Lanthascreen TR-FRET assay

[2] = target: T2, Tyrosine-protein kinase JAK1 (Homo sapiens, UniProt P23458)
Description: Inhibition of recombinant JAK1 (unknown origin) using GFP-STAT1 as substrate incubated for 1 hr followed by anti-pSTAT1 antibody addition and measured after 30 mins by Lanthascreen TR-FRET assay

[3] = target: T3, Non-receptor tyrosine-protein kinase TYK2 (Homo sapiens, UniProt P29597)
T3 sequence (P29597 whole entry): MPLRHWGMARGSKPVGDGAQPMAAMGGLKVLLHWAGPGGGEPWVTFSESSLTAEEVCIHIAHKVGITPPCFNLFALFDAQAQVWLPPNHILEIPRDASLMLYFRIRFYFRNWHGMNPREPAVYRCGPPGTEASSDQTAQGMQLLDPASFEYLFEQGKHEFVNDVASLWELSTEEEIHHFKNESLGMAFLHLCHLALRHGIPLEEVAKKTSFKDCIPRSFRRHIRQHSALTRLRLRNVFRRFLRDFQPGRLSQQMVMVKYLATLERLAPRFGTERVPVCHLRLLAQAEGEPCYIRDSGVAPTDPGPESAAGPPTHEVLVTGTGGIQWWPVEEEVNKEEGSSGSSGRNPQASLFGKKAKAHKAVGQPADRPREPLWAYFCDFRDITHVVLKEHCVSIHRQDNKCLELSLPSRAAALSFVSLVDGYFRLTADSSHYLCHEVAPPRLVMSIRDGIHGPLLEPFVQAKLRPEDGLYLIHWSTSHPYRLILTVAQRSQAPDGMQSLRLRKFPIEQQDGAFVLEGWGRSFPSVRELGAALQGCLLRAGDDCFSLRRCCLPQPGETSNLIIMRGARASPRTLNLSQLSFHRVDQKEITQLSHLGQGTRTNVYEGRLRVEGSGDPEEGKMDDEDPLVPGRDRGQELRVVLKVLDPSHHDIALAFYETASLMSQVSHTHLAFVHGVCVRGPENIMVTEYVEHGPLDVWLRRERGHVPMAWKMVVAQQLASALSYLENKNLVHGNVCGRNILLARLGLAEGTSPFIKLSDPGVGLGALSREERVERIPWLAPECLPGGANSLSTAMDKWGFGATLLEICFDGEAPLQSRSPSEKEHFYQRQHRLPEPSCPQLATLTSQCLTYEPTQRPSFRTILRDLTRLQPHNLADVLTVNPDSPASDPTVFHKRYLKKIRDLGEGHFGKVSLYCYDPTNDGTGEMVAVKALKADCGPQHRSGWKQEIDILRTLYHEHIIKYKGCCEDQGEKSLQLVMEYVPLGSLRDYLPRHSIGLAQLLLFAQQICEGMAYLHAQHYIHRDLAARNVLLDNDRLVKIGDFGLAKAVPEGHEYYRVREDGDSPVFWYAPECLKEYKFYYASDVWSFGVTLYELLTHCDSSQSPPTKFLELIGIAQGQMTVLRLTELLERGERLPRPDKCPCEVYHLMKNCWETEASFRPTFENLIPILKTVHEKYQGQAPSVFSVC
Description: Inhibition of recombinant TYK2 (unknown origin) using GFP-STAT1 as substrate incubated for 1 hr followed by anti-pSTAT1 antibody addition and measured after 30 mins by Lanthascreen TR-FRET assay

[4] = target: T3, Non-receptor tyrosine-protein kinase TYK2; details: BaF3
Description: Inhibition of TYK2 (unknown origin) transfected in mouse BAF3 cells assessed as cell growth inhibition incubated for 72 hrs by CCK8 assay

[5] = target: T4, Tyrosine-protein kinase JAK3 (Homo sapiens) (UniProt P52333); details: BaF3
T4 sequence (whole entry): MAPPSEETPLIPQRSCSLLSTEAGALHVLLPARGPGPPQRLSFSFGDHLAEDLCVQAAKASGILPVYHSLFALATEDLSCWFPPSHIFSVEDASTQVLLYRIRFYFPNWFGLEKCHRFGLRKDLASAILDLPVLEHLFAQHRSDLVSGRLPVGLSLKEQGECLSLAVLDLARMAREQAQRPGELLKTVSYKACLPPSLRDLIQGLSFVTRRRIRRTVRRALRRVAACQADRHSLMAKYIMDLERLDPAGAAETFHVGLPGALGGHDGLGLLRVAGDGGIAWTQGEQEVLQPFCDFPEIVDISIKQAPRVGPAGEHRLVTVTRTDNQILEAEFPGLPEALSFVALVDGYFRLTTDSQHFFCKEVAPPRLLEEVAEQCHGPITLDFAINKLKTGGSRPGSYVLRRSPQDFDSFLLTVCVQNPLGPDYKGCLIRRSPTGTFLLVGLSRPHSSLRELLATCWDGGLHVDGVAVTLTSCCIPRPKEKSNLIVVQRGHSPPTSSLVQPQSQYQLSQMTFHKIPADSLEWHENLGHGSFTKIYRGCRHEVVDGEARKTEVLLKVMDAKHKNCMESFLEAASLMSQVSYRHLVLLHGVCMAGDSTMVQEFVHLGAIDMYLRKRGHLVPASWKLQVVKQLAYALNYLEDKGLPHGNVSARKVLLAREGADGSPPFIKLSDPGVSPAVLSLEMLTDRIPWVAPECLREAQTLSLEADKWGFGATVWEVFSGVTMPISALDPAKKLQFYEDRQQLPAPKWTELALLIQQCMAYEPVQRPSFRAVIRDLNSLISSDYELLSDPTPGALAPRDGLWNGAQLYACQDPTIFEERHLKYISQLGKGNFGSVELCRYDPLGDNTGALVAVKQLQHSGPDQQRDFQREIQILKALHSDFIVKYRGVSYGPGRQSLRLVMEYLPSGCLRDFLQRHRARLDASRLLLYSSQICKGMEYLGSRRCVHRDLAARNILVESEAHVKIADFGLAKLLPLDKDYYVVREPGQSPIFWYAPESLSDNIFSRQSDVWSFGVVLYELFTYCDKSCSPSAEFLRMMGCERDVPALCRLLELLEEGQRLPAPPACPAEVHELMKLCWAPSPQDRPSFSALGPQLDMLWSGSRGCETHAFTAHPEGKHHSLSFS
Description: Inhibition of JAK3 (unknown origin) transfected in mouse BAF3 cells assessed as cell growth inhibition incubated for 72 hrs by CCK8 assay

[6] = target: T2, Tyrosine-protein kinase JAK1; details: BaF3
Description: Inhibition of JAK1 (unknown origin) transfected in mouse BAF3 cells assessed as cell growth inhibition incubated for 72 hrs by CCK8 assay

[7] = target: T1, Tyrosine-protein kinase JAK2; details: BaF3
Description: Inhibition of JAK2 (unknown origin) transfected in mouse BAF3 cells assessed as cell growth inhibition incubated for 72 hrs by CCK8 assay

[8] = test system: LX2; details: Homo sapiens, dose 500.0 nM
[9] = target: CYP3A4 (Homo sapiens, UniProt P08684); test: in vitro
[10] = in vitro; details: human, lx2
[11] = in vitro; details: mouse, microsomes
Description: Metabolic stability in mouse liver microsomes assessed as parent compound remaining at 10 uM measured after 30 mins relative to control

[12] = in vitro; details: dog, MDCK
Description: Permeability of compound across apical to basolateral side in MDCK cells at 10 uM

[13] = target: CYP2C19 (Homo sapiens, UniProt P33261); test: in vitro
Description: Inhibition of CYP2C19 (unknown origin) at 10 uM relative to control

[14] = in vitro; details: human, plasma
Description: Stability in human plasma assessed as compound remaining at 2 uM measured after 2 hrs relative to control

[15] = in vitro; details: rat, microsomes
Description: Metabolic stability in rat liver microsomes assessed as parent compound remaining at 10 uM measured after 30 mins relative to control

[16] = target: CYP2D6 (Homo sapiens, UniProt P10635); test: in vitro
Description: Inhibition of CYP2D6 (unknown origin) at 10 uM relative to control

[17] = target: CYP2C9 (Homo sapiens, UniProt P11712); test: in vitro
Description: Inhibition of CYP2C9 (unknown origin) at 10 uM relative to control

[18] = in vitro; details: dog, MDCK; remark: listed apart in the source
Description: Permeability of compound across basolateral to apical side in MDCK cells at 10 uM

[19] = target: Vascular endothelial growth factor receptor 1 (Homo sapiens, UniProt P17948)
Vascular endothelial growth factor receptor 1, sequence (P17948 whole entry): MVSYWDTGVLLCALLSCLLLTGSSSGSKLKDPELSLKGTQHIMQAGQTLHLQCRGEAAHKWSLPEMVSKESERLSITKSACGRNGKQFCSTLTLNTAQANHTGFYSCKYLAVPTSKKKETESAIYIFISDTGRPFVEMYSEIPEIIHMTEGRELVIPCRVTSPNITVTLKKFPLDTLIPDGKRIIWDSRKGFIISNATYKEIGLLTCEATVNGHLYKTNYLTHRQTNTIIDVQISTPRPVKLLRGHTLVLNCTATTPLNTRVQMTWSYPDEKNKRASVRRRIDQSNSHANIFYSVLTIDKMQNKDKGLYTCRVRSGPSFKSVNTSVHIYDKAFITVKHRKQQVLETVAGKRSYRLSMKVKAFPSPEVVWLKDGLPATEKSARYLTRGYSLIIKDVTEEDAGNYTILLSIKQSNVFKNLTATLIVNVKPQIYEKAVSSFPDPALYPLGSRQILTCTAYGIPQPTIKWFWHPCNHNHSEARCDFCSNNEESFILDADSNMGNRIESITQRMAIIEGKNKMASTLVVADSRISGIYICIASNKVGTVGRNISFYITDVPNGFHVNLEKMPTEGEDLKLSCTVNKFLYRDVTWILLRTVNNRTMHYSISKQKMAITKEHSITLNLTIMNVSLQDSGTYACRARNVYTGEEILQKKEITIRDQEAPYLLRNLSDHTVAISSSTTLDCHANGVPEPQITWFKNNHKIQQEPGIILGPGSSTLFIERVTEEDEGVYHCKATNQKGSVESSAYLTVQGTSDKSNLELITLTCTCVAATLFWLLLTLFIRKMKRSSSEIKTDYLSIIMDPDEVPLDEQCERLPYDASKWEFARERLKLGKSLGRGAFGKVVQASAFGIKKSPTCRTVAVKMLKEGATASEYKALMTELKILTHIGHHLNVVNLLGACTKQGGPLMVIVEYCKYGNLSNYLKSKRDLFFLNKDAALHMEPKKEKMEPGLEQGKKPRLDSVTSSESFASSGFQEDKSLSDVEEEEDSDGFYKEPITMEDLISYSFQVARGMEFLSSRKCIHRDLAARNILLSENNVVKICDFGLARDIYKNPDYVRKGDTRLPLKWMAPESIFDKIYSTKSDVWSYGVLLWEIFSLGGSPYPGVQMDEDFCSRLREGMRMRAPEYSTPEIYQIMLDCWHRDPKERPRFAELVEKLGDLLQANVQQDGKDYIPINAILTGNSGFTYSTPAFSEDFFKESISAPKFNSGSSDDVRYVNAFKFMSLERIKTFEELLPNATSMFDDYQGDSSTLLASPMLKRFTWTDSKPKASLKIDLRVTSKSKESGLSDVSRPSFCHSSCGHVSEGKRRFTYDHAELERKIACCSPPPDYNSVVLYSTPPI

[20] = in vitro; details: rat, plasma
Description: Stability in rat plasma assessed as compound remaining at 2 uM measured after 2 hrs relative to control

[21] = target: T5, CYP1A2 (Homo sapiens, UniProt P05177); test: in vitro
T5 sequence (P05177 whole entry): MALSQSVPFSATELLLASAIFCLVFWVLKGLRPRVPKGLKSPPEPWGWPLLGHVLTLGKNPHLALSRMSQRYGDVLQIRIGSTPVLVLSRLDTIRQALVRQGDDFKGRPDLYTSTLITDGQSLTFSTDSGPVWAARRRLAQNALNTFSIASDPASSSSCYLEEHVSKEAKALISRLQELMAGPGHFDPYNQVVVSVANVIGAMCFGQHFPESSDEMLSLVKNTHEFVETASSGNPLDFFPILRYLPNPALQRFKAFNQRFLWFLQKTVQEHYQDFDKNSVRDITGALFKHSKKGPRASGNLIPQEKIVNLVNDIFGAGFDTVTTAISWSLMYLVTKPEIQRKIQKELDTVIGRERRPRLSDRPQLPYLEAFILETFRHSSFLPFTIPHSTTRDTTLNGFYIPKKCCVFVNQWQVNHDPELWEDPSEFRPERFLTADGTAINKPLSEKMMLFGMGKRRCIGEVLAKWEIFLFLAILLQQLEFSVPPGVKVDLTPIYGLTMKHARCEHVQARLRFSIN
Description: Inhibition of CYP1A2 (unknown origin) at 10 uM relative to control

[22] = cells; assay type: functional, LX2; details: Homo sapiens, LX-2, 72 h; time hrs <=72
[23] = in vitro; details: human, microsomes
Description: Metabolic stability in human liver microsomes assessed as parent compound remaining at 10 uM measured after 30 mins relative to control

[24] = test system: LX2; details: Homo sapiens, dose 500.0 nM; remark: listed apart in the source
[25] = test system: LX2; details: Homo sapiens, dose lower […], dose upper 500.0 nM
[26] = test system: LX2; details: Homo sapiens, dose 500.0 nM; remark: listed apart in the source

T1 sequence (O60674 whole entry): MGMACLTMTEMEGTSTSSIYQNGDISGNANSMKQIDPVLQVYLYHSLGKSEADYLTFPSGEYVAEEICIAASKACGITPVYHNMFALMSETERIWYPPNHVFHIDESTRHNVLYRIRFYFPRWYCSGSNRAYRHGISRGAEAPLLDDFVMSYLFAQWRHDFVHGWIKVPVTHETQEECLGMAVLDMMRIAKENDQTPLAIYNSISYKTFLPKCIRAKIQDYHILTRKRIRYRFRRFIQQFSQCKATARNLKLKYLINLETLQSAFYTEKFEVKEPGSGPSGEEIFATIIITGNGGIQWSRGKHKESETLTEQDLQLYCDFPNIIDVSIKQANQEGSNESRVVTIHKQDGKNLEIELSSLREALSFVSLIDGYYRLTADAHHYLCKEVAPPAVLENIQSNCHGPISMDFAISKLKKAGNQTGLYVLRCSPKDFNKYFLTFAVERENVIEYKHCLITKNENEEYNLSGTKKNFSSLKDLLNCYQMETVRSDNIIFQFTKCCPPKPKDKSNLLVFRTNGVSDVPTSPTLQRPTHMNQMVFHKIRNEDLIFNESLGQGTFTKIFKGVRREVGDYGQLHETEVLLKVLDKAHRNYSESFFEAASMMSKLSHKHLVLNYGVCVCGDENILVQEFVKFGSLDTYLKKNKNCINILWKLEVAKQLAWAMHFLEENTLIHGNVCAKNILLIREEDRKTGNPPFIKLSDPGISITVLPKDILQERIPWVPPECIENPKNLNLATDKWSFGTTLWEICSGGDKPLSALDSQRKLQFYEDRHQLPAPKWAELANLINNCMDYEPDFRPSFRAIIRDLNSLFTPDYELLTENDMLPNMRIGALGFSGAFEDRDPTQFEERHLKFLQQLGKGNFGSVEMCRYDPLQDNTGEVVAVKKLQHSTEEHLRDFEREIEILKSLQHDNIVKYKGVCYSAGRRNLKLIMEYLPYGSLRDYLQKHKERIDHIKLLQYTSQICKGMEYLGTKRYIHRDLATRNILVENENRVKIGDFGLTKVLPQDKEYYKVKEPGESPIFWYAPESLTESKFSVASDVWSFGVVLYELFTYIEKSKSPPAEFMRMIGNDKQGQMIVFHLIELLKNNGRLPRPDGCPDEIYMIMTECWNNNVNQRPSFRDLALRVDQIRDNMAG
T2 sequence (P23458 whole entry): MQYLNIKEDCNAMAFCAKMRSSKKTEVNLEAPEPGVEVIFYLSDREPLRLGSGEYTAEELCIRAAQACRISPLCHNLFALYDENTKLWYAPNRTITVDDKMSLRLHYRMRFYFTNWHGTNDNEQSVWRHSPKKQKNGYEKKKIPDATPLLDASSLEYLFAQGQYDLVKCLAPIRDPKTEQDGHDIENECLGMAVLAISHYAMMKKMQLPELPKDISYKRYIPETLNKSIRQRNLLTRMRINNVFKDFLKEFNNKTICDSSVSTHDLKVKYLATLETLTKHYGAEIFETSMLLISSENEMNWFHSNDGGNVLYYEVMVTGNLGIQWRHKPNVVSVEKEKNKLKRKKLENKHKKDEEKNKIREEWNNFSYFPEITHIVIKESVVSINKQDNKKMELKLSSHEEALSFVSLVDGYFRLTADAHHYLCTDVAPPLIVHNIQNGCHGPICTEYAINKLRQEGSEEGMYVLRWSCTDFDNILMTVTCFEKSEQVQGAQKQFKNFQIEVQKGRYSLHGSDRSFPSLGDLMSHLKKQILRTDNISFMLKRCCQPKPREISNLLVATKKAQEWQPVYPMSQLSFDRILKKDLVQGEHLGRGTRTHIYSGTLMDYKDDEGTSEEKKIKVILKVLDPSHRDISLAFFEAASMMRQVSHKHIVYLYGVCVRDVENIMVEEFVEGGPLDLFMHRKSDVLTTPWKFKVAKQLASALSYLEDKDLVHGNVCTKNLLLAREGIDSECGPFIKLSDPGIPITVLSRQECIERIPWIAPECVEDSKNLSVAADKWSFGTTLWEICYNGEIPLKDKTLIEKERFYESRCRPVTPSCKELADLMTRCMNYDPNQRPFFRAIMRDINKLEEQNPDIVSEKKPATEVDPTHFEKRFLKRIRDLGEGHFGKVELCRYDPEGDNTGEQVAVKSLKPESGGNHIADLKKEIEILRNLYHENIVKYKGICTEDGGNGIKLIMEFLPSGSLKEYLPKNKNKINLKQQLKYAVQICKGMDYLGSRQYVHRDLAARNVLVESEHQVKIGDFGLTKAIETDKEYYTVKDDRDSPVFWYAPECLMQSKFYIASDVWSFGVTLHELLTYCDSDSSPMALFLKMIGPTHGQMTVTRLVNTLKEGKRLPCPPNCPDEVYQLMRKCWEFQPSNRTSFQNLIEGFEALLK

Compound	IC50 [1] [nM]	IC50 [2] [nM]	IC50 [3] [nM]	GI50 [4] [µM]	GI50 [6] [nM]	also measured
CNC(=O)c1cnc2[nH]ccc2c1NC1CCN(Cc2ccc(OC)c(OC)c2)CC1	> 10000	8400	–	–	–	–
O=C(NC1CC1)c1cnc2[nH]ccc2c1NC1CCN(Cc2ccccc2)CC1	232	114	1350	–	–	–
CNC(=O)c1cnc2[nH]ccc2c1NC1CCN(Cc2cccc(C#N)c2)CC1	759	82	710	–	–	–
CNC(=O)c1cnc2[nH]ccc2c1N[C@@H]1CCN(Cc2cccc(Cl)c2)[C@@H](C)C1 (relative stereo)	–	–	–	4.75	232	GI50 [5]: > 10000 nM
CNC(=O)c1cnc2[nH]ccc2c1NC1CCN(Cc2ccccc2)CC1	–	65	586	–	–	–
CNC(=O)c1cnc2[nH]ccc2c1N[C@@H]1CCN(Cc2ccc(Cl)cc2)[C@H](C)C1	–	–	–	> 10	2950	GI50 [5]: > 10000 nM
CC(=O)Nc1cc(Oc2ccc3c(c2)CCN3C(=O)Nc2ccc(CN3CCN(C)CC3)c(C(F)(F)F)c2)ncn1	–	–	–	0.15	129	GI50 [5]: 451 nM; GI50 [7]: 0.409 µM
CNC(=O)c1cnc2[nH]ccc2c1NC1CCCN(Cc2cccc(OC)c2)CC1 (centres undefined)	4.34	8.61	42.7	–	–	–
CNC(=O)c1cnc2[nH]ccc2c1NC1CCCN(Cc2ccccc2)CC1 (centres undefined)	89.3	–	276	–	–	–
CNC(=O)c1cnc2[nH]ccc2c1N[C@@H]1CCN(Cc2cccc(OC)c2)C[C@@H]1F (relative stereo)	–	–	–	9.65	214	–
COc1cccc(CN2CCC(Nc3c(C(N)=O)cnc4[nH]ccc34)CC2)c1	–	195	–	–	–	–
CNC(=O)c1cnc2[nH]ccc2c1NC1CCN(c2ccccc2)CC1	–	160	–	–	–	–
CNC(=O)c1cnc2[nH]ccc2c1NC1CCN(Cc2ccc(OC)cc2)CC1	3540	202	–	–	–	–
CNC(=O)c1cnc2[nH]ccc2c1NC1CCN(Cc2cccc(OC)c2)CC1	469	18	1210	–	–	–
CNC(=O)c1cnc2[nH]ccc2c1N[C@H]1CCN(Cc2ccc(Cl)cc2)[C@@H](C)C1	–	–	–	0.475	6.4	GI50 [5]: 1140 nM
CNC(=O)c1cnc2[nH]ccc2c1NC1CCCN(Cc2cccc(Cl)c2)CC1 (centres undefined)	–	–	–	> 10	476	GI50 [5]: > 10000 nM; GI50 [7]: 7.69 µM
NC(=O)c1cnc2[nH]ccc2c1NC1CCN(Cc2ccccc2)CC1	–	–	110	–	–	–
CNC(=O)c1cnc2[nH]ccc2c1NC1CCN(Cc2ccccc2OC)CC1	7060	406	4180	–	–	–
O=C(Nc1nc2cccc(-c3ccc(CN4CCS(=O)(=O)CC4)cc3)n2n1)C1CC1	–	–	–	7.19	798	GI50 [5]: > 10000 nM; inhibition [8]: Active; GI50 [7]: > 10 µM
COc1cccc(CN2CCC(Nc3c(C(=O)NC4CC4)cnc4[nH]ccc34)CC2)c1	> 10000	2960	> 10000	–	–	–
CNC(=O)c1cnc2[nH]ccc2c1N[C@@H]1CCN(Cc2ccc(Cl)cc2)[C@H](C)C1 (relative stereo) [listing 1 of 2 here]	–	–	–	–	–	inhibition at 10 µM [9]: 92.9%; GI50 at 48 h [10]: > 10 µM; remaining at 0.5 h, 10 µM [11]: 28.2%; Papp A→B at 10 µM [12]: 1.9 ×10⁻⁶ cm/s; inhibition at 10 µM [13]: 75.7%; remaining at 2 h, 2 µM [14]: > 100%; remaining at 0.5 h, 10 µM [15]: 11.6%; inhibition at 10 µM [16]: 77.1%; inhibition at 10 µM [17]: 70%; Papp B→A at 10 µM [18]: 3.7 ×10⁻⁶ cm/s; IC50 [19]: 106 nM; remaining at 2 h, 2 µM [20]: 92.6%; inhibition at 10 µM [21]: 74.8%; GI50 [22]: 5.79 µM; remaining at 0.5 h, 10 µM [23]: 80.6%
C[C@@H]1C[C@H](Nc2c(C(N)=O)cnc3[nH]ccc23)CCN1Cc1cccc(Cl)c1 (relative stereo)	93.8	6.87	48.4	–	–	–
O=C(NC1CCCC1)c1cnc2[nH]ccc2c1NC1CCN(Cc2ccccc2)CC1	–	> 10000	–	–	–	–
CNC(=O)c1cnc2[nH]ccc2c1N[C@@H]1CCN(Cc2ccc(Cl)cc2)[C@H](C)C1 (relative stereo) [listing 2 of 2 here]	–	–	–	0.655	10.5	inhibition [24]: Active; GI50 [5]: 1360 nM; inhibition [8]: Active; inhibition [25]: Active; inhibition [26]: Active
COc1cccc(CN2CC[C@@H](Nc3c(C(N)=O)cnc4[nH]ccc34)C[C@H]2C)c1 (relative stereo)	57.6	17.2	157	–	–	–
COc1cccc(CN2CCC(Nc3c(C(=O)NC4CCCC4)cnc4[nH]ccc34)CC2)c1	> 10000	3280	> 10000	–	–	–
CNC(=O)c1cnc2[nH]ccc2c1NC1CC2CCC(C1)N2Cc1ccc(Cl)cc1 (centres undefined)	–	–	–	1.71	1800	GI50 [5]: 3900 nM; GI50 [7]: 3.95 µM
